Measurements from patent US3974153A, “7-Hydrocarbonoxy imino-acetamido-3-carbamoyloxy methylceph-3-em-4 carboxylic acids” (Glaxo Laboratories Limited, priority 1971, dated 1976).
Where a name gives a salt, the structure may show the parent alone.

How the values were obtained:
[1] = exposure of crystalline forms to water vapour; format: physicochemical; conditions: for water content after exposure to moisture (Karl-Fischer): 75% relative humidity, 3 days, product is Form IV
Procedure: The resulting material contains about 4% water (i.e. about 1 mole) and is believed to be a hydrate. This change is reversible, so that Form IV salt may be converted to Form I salt by, for example, drying in vacuo over a desiccating agent such as phosphorus pentoxide.
If crystalline Form III material is treated in this way, the crystal habit of the product appears to be retained throughout the sequence of transformations. Form III salt may also be converted to Form I salt by heating a suspension of Form III material in nearly boiling methanol; this transformation […] in loss of crystallinity where crystalline Form III material is used.
Sample of Form I and Form III sodium 3-carbamoyloxymethyl-7-[2-(fur-2-yl)-2-methoxyiminoacetamido]ceph-3-em-4-carboxylate (syn isomer), prepared according to Method (iii) of Example 7 and Example 9 respectively, were exposed to moisture (75% relative humidity) for 3 days to give the title compound. The IR and NMR spectra of the products conformed to those of an authentic sample. Karl-Fischer water analysis gave, respectively, 4.0 and 3.85% (1 mole H2 O is equivalent to 3.9%).

[2] = distribution in the body on administration by injection; format: in vivo
[3] = solubility of base salts; format: physicochemical; conditions: e.g. alkali metal salts
[4] = test system: Proteus species; experiment: antibacterial activity; format: cell-based; conditions: in vitro and in vivo tests
[5] = serum levels following parenteral administration, humans; format: in vivo; conditions: human subjects
[6] = stability in the body and urinary recovery, animals; format: in vivo
[7] = test system: Neisseria gonorrhoeae; experiment: in vitro antibacterial activity; format: cell-based
[8] = stability in the body and urinary recovery, humans; format: in vivo, human
[9] = test system: Enterobacter species; experiment: antibacterial activity; format: cell-based; conditions: in vitro and in vivo tests
[10] = test system: Diplococcus pneumoniae; experiment: antibacterial activity; format: cell-based; conditions: in vitro and in vivo tests
[11] = test system: Clostridia species; experiment: antibacterial activity; format: cell-based; conditions: in vitro and in vivo tests
[12] = test system: Neisseria meningitidis; experiment: in vitro antibacterial activity; format: cell-based
[13] = serum levels following parenteral administration, animals; format: in vivo; conditions: animal subjects
[14] = test system: Neisseria species; experiment: antibacterial activity; format: cell-based; conditions: in vitro and in vivo tests
[15] = test system: β-lactamases; experiment: stability to β-lactamases produced by gram-negative organisms; format: cell-based; conditions: evidenced by in vitro activity against β-lactamase-producing strains of Escherichia, Enterobacter and Klebsiella species
[16] = test system: gram-positive and gram-negative microorganisms; experiment: antibacterial activity against gram-positive and gram-negative microorganisms; format: cell-based
[17] = serum binding; format: in vitro ADME
[18] = test system: Haemophilus influenzae; experiment: antibacterial activity; format: cell-based
[19] = test system: Streptococcus pyogenes; experiment: antibacterial activity; format: cell-based; conditions: in vitro and in vivo tests
[20] = test system: Escherichia coli; experiment: antibacterial activity; format: cell-based; conditions: in vitro and in vivo tests
[21] = test system: Klebsiella species; experiment: antibacterial activity; format: cell-based; conditions: in vitro and in vivo tests
[22] = test system: Staphylococcus aureus; experiment: antibacterial activity; format: cell-based; conditions: in vitro and in vivo tests
[23] = test system: Streptococcus vilidans; experiment: antibacterial activity; format: cell-based; conditions: in vitro and in vivo tests
[24] = test system: Staphylococci; experiment: antibacterial activity; format: cell-based; conditions: in vitro and in vivo tests
[25] = test system: mammalian esterases; experiment: resistance to esterases; format: in vitro ADME

In the case of `CO/N=C(\C(=O)N[C@@H]1C(=O)N2C(C(=O)O)=C(COC(N)=O)CS[C@H]12)c1ccco1` [Form II, Form II Sodium (6R,7R)-3-Carbamoyloxymethyl-7-[2-(fur-2-yl)-2-methoxyiminoacetamido]ceph-3-em-4-carboxylate (syn isomer)], the “water absorption on exposure to water vapour (hygroscopicity)” value (from here on “water absorption on exposure”) ([1]; e.g. 75% relative humidity) is reported as “does not absorb further water”.

In the case of `CO/N=C(\C(=O)N[C@@H]1C(=O)N2C(C(=O)O)=C(COC(N)=O)CS[C@H]12)c1ccco1` [Form III, Form III Sodium (6R,7R)-3-Carbamoyloxymethyl-7-[2-(fur-2-yl)-2-methoxyiminoacetamido]ceph-3-em-4-carboxylate (syn isomer)], the “water content after exposure to moisture (Karl-Fischer)” value [1] is reported as 3.85%, the “change of form on exposure to water vapour” value ([1]; e.g. 75% relative humidity) is reported as “loses all the dioxan present and forms Form IV material” and the “water absorption on exposure” value ([1]; e.g. 75% relative humidity) is reported as “hygroscopic”.

For `CO/N=C(\C(=O)N[C@@H]1C(=O)N2C(C(=O)O)=C(COC(N)=O)CS[C@H]12)c1ccco1` [Form I, Form I Sodium (6R,7R)-3-Carbamoyloxymethyl-7-[2-(fur-2-yl)-2-methoxyiminoacetamido]ceph-3-em-4-carboylate (syn isomer)], the “water content after exposure to moisture (Karl-Fischer)” value [1] was 4.0%, the “change of form on exposure to water vapour” value ([1]; e.g. 75% relative humidity) was “undergo a change of crystalline form leading generally to Form IV salt” and the “water absorption on exposure” value ([1]; e.g. 75% relative humidity) was “absorb further water”. For the same compound, the “water content of material resulting from exposure to water vapour” value ([1]; e.g. 75% relative humidity, material generally Form IV) was “about 4%”.

In the case of `CO/N=C(\C(=O)N[C@@H]1C(=O)N2C(C(=O)O)=C(COC(N)=O)CS[C@H]12)c1ccco1` [sodium salt, sodium (6R,7R)-3-carbamoyloxymethyl-7-[2-(fur-2-yl)-2-methoxyiminoacetamido]ceph-3-em-4-carboxylate (syn isomer)], the “distribution in the body” value [2] is reported as “rapid distribution” and the solubility [3] is reported as “highly soluble”.

With `CO/N=C(\C(=O)N[C@@H]1C(=O)N2C(C(=O)O)=C(COC(N)=O)CS[C@H]12)c1ccco1` [compound (II), (6R,7R)-3-carbamoyloxymethyl-7-[2-(fur-2-yl)-2-methoxyiminoacetamido]ceph-3-em-4-carboxylic acid (syn isomer)] the “activity against Proteus species” value [4] was “active”, the serum levels [5] was “high serum levels” and the “recovery of unchanged compound in the urine” value [6] was “high levels”. The “stability in the body” value [6] was “stable”, the “in vitro activity against strains of Neisseria gonorrhoeae” value [7] was “particularly high in vitro activity” and the “recovery of unchanged compound in the urine” value [8] was “high levels”. For the same compound, the “stability in the body” value [8] was “stable”, the “activity against Enterobacter species” value [9] was “active” and the “activity against Diplococcus pneumoniae” value [10] was “active”. The “activity against Clostridia species” value [11] was “active”, the “in vitro activity against strains of Neisseria meningitidis” value [12] was “particularly high in vitro activity” and the serum levels [13] was “high serum levels”. For the same compound, the “activity against Neisseria species” value [14] was “active”, the “stability to β-lactamases produced by a range of gram-negative organisms” value [15] was “very high stability” and the “activity against gram-positive and gram-negative microorganisms” value ([16]; in vitro and in vivo tests) was “active”. For the same compound, the “in vitro activity at high inoculum levels” value ([16]; inoculum levels as high as 10^7 organisms/ml) was “good in vitro activity”, the serum binding [17] was “low serum binding” and the “in vitro activity against strains of Haemophilus influenzae” value ([18]; in vitro) was “particularly high in vitro activity”. For the same compound, the “activity against Haemophilus influenzae” value ([18]; in vitro and in vivo tests) was “active”, the “activity against Streptococcus pyogenes” value [19] was “active” and the “activity against Escherichia coli” value [20] was “active”. For the same compound, the “activity against Klebsiella species” value [21] was “active”, the “activity against Staphylococcus aureus” value [22] was “active” and the “activity against Streptococcus vilidans” value [23] was “active”. The “activity against Staphylococci” value [24] was “active” and the “resistance to the action of mammalian esterases” value [25] was “resistant”.
